Each structure is given as a SMILES string.

This data set can be described thus: Solubility of dispersants in purified water. Type of data set: physicochemical.

Experimental: Evaluations of solubility were carried out by evaluating dispersants having solubility in purified water of 0.02% or more as “O” (soluble) and those having solubility of less than 0.02% as “x” (insoluble).

For `Cc1ccc2cccc(Nc3nc(Nc4ccc(C(=O)O)cc4)nc(Nc4ccc(C(=O)O)cc4)n3)c2n1` [Dispersant J], the Solubility in water result is reported as “Solubility in water: x (solubility of less than 0.02% as “x” (insoluble))”.

Take `O=C1Cc2ccc(Nc3nc(Nc4ccc(C(=O)O)cc4)nc(Nc4ccc5[nH]c(=O)[nH]c5c4)n3)cc2C1` [Dispersant I]: the Solubility in water entry is listed as “Solubility in water: x (solubility of less than 0.02% as “x” (insoluble))”. Regarding `Cc1ccc(Nc2nc(Nc3ccccc3)nc(Nc3ccc4[nH]c(=O)[nH]c4c3)n2)cc1S(=O)(=O)O` [Dispersant A], the Solubility in water result was “Salt forming substance: None Solubility in water: ∘”. Then `O=C(O)c1cc2ccccc2c(N=Nc2ccc([N+](=O)[O-])cc2)c1O` [Dispersant O], with “Salt forming substance: None Solubility in water: ∘”. Then `CCn1c2ccccc2c2cc(Nc3nc(O)nc(Nc4ccc(O)c(C(=O)O)c4)n3)ccc21` [Dispersant H], with “Salt forming substance: None Solubility in water: ∘”; and `O=P(O)(O)c1ccc(Nc2nc(Nc3ccc4ccccc4c3)nc(Nc3ccc4ccccc4c3)n2)cc1` [Dispersant F], with “Salt forming substance: None Solubility in water: ∘”. Then `CC1(C)CC(Nc2nc(Nc3ccc(P(=O)(O)O)cc3)nc(Nc3ccc4[nH]c(=O)[nH]c4c3)n2)CC(C)(CNc2nc(Nc3ccc(P(=O)(O)O)cc3)nc(Nc3ccc4[nH]c(=O)[nH]c4c3)n2)C1` (stereo not shown) [Dispersant G], with “Solubility in water: x (solubility of less than 0.02% as “x” (insoluble))”.

Values taken from US20100233532A1, “Composition for battery” (TOYO INK MFG. CO., LTD., priority 2007, published 2010).
